# From patent publication US20250296971A1, “GASTRIC INHIBITORY PEPTIDE RECEPTOR LIGANDS” (priority 2021, published 2025)
# *1 amine or outer side, *2 acyl side, *3 side chain or, on linkers, in order; H or OH if unused. Where a SMILES comes first, the peptide text is derived from it. Bridges are numbered along the chain shown (N, C = ends). [ ]: non-standard residue; d: D form. The star is where a group is joined. NH(1-deoxy-D-glucityl) = OC[C@@H](O)[C@@H](O)[C@H](O)[C@@H](O)CN*; DOTA = O=C(O)CN1CCN(CC(=O)O)CCN(CC(=O)*)CCN(CC(=O)O)CC1; Trp(5-Cl) = N[C@@H](Cc1c[nH]c2ccc(Cl)cc12)C(=O)O; Pyridine(2,6-diCH2) = c1cc(C[*:1])nc(C[*:2])c1; Pro(4R-NH2) = N[C@H]1CN[C@H](C(=O)O)C1; Glutaryl = O=C(CCCC(=O)[*:2])[*:1]; X1 = O=C(CN1CCC(N[*:1])CC1)[*:2]; Api = NC1(C(=O)O)CCNCC1
# Assays:
# Rat GIPR = biological target: T1, Rat GIPR (Rattus norvegicus, UniProt P43219); experiment: Radioligand binding assay, rat GIPR; settings: 111In-labeled compound, 6 h, 37° C., read-out: pKD Category (converted)
# T1 construct: host or cells: CHO-VGT
# T1 sequence (P43219 19-455): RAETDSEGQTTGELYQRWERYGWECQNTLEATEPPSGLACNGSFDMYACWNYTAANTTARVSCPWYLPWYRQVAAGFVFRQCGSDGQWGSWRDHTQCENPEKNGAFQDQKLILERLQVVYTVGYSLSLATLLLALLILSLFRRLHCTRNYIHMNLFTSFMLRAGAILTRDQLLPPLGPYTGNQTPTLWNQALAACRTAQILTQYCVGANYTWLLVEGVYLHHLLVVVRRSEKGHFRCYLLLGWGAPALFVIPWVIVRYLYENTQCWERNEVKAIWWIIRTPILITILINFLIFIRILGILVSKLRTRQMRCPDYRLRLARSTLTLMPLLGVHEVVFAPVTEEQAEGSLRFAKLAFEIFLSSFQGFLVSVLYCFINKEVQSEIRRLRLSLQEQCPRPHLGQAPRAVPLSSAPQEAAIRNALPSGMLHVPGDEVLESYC
# Description: (§1) In order to assess the affinity of ^111In-labeled compounds to the GIPR receptor of different species, a radioligand binding assay was established.
# (§2) CHO-K1 cells (GenScript Biotech, #M00486) were stably transfected with the human GIPR. CHO-K1-hGIPR cells were cultured in Ham's F12 medium (Sigma-Aldrich, #N4888) including 10% fetal calf serum (FCS), 2 mM L-glutamine, 100 U/mL penicillin, 100 µg/mL streptomycin, 200 µg/mL Zeocin and 100 µg/mL HygromycinB. To evaluate the species cross-reactivity, CHO-VGT cells were transfected with the human, dog, rat and mouse GIPR (Inscreenex GmbH), which were cultured in DMEM/Ham's F12 Medium 1:1 (Biochrom, #F485) including 5% fetal calf serum (FCS), 2 mM L-glutamine, 100 U/mL penicillin and 100 μg/mL streptomycin. Cells were detached with Accutase (Biolegend, #BLD-423201) and counted using a particle counter (CASY Model TT; Schärfe Systems). Cell concentrations were adjusted to 3×10^5 mL^−1, and 1.000 μL of the suspension per well were dispensed into flat-clear-bottom 24 well plates.
# (§3) Approximately 24 hours after re-seeding, the medium was aspirated and the cells were washed once with 700 μL assay medium (Ham's medium with 20 mM HEPES). […]
# (§4) At the end of incubation time, cells were washed and subsequently harvested in 300 μL RIPA buffer containing PIC. Radioactivity of the cell lysate of each well was counted using a gamma counter (Perkin Elmer). […]
# [1] = biological target: T2, GIPR (CHO-K1-hGIPR cells) (Homo sapiens, UniProt P48546); experiment: FACS binding assay; settings: competition with 20 nM GIP-057, 4° C., 1 hour, read-out: pIC50 Category (converted)
# T2 construct: host or cells: CHO-K1
# T2 sequence (P48546 22-466): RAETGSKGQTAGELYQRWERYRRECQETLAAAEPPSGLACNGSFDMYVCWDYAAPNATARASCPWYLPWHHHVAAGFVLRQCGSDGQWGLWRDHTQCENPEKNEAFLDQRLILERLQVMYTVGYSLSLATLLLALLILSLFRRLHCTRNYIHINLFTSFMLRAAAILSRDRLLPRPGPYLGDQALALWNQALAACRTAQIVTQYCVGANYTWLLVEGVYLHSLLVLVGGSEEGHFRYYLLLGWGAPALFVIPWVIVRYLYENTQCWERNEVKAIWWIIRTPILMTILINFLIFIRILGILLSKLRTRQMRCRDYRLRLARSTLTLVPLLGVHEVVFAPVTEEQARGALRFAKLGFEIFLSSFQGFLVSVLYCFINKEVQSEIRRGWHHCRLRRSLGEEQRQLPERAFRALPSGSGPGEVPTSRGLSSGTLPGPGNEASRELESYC
# How it was run: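 CHO-K1 cells stably expressing human GIPR were detached with Accutase, suspended at 500.000 cells per mL in PBS with 1% FCS, and washed ice-cold. Bound peptide was detected with 1 μg/mL APC-streptavidin for 30 min on ice.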
# Mouse GIPR = biological target: T3, Mouse GIPR (Mus musculus, UniProt Q0P543); experiment: Radioligand binding assay, mouse GIPR; settings: 111In-labeled compound, 6 h, 37° C., read-out: pKD Category (converted)
# T3 construct: host or cells: CHO-VGT
# T3 sequence (Q0P543 19-460): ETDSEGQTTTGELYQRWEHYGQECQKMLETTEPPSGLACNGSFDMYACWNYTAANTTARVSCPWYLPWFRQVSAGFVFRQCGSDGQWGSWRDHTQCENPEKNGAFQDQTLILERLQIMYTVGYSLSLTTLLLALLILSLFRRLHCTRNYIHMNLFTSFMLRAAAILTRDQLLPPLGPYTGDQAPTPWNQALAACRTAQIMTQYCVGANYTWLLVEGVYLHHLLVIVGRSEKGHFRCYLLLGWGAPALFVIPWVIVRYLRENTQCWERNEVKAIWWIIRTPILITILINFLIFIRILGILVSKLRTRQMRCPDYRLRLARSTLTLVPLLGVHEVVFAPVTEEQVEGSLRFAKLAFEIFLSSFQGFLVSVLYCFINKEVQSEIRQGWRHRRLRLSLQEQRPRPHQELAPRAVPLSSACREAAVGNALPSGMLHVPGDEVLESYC
# Description: as §1, §2, §3, §4
structure (smiles),measurement,setting,value
"CC[C@H](C)[C@@H]1NC(=O)[C@H](CC(C)C)NC(=O)C2(CCN(C(=O)CN3CCN(CC(=O)O)CCN(CC(=O)O)CCN(CC(=O)O)CC3)CC2)NC(=O)[C@@H](NC(=O)[C@@H](CC(C)C)NC(=O)[C@H](CCC(=O)O)NC(=O)[C@@H]2C[C@@H](N)CN2C(=O)[C@H](Cc2c[nH]c3ccc(Cl)cc23)NC(=O)[C@H](Cc2c[nH]c3ccccc23)NC(=O)[C@H](CC(=O)O)NC(=O)CCCC(=O)NC[C@H](O)[C@@H](O)[C@H](O)[C@H](O)CO)CSCc2cccc(n2)CSC[C@@H](C(=O)NC2CCN(CC(=O)N[C@H](CCC(=O)NC[C@H](O)[C@@H](O)[C@H](O)[C@H](O)CO)C(N)=O)CC2)NC1=O [GIP-001, AGLU-Glutar-Asp-Trp-5Clw-Tap-Glu-leu-[Cys(2Lut)-Apc(DOTA)-Leu-Ile-Cys]-APAc-glu(AGLU)-NH2] ({NH(1-deoxy-D-glucityl)-Glutaryl}-DW[Trp(5-Cl)][Pro(4R-NH2)]E[dL]C[Api](DOTA)LIC[X1][dE](NH(1-deoxy-D-glucityl))-NH2; linker 7-11 via Pyridine(2,6-diCH2))",Kd,Rat GIPR,0.316 to 1 nM
same,IC50,[1],< 10 nM
same,Kd,Mouse GIPR,> 1 nM
